# Experimental data as given in patent US9221809B2 (MERCK SHARP & DOHME CORP., priority 2011, dated 2015).
# Where a name gives a salt, the structure may show the parent alone. Read-outs that look alike come from different tables or passages of the source.
# Biological target: IRAK4 (Homo sapiens (Human), UniProt Q9NWZ3)
# Experiment: IRAK4 kinase activity, IMAP fluorescence polarization assay
# Format: biochemical
# Conditions: 100 μM ATP
# Procedure, shortened: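 Fluorescence polarization (IMAP nanoparticle binding of phosphopeptide) reports activity after a 30 min, 25 °C reaction. Conditions: 100 μM ATP, 0.5 nM GST-IRAK4, 100 nM fluorescent peptide, 10 mM Tris pH 7.2, 1 mM MgCl2, 1 mM DTT, 0.01% Tween 20.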
# [1] = 0.5 nM GST tagged IRAK4, read-out: IRAK4 IC50
# IRAK4, sequence (Q9NWZ3 whole entry): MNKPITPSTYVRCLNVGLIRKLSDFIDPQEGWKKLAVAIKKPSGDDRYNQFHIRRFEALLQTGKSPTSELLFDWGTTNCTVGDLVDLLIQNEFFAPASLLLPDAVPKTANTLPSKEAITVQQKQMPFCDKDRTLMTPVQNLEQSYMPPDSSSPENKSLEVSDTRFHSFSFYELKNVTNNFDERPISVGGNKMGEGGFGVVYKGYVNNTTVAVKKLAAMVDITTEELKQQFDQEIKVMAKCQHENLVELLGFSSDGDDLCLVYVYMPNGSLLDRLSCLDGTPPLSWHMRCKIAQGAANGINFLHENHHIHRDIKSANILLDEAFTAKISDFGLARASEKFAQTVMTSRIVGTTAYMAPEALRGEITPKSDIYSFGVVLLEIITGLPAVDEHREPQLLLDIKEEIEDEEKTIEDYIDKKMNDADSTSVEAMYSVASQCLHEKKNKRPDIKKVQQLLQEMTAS
IC50 (read-out: IC50),IC50 (read-out: IRAK4 IC50),SMILES,other results
,,"O=c1[nH]c(NC2CCCCC2)nc(N[C@@H]2C[C@H](CO)[C@@H](O)[C@H]2O)c1-c1nc2ccccc2s1 [Example 6, 5-(Benzo[d]thiazol-2-yl)-2-(cyclohexylamino)-6-((1R,2S,3R,4R)-2,3-dihydroxy-4-(hydroxymethyl)cyclopentylamino)pyrimidin-4(3H)-one.HCl]",IC50 [1]: 636 nM
170 nM,,"O=c1[nH]c(C2CCN(S(=O)(=O)C3CC3)CC2)nc(N[C@@H]2CCCNC2)c1-c1nc2ccccc2s1 [Example 238, (R)-5-(1,3-benzothiazol-2-yl) 2-[1-(cyclopropane-sulfonyl)piperidin-4-yl]-6-[(piperidin-3-yl)amino]-3,4-dihydropyrimidin-4-one]",
,22 nM,"COC1(C)CN(c2nc(N[C@@H]3CCCNC3)c(-c3ccc4ccccc4n3)c(=O)[nH]2)C1 [Example 176, (R)-2-(3-methoxy-3-methylazetidin-1-yl)-6-(piperidin-3-ylamino)-5-(quinolin-2-yl)pyrimidin-4(3H)-one]",
17 nM,,O=c1[nH]c(N2CC[C@@H](O)C2)nc(N[C@@H]2CCCNC2)c1-c1nc2ccccc2s1 [Example 315],
5620 nM,,"N#Cc1ccnc(-c2c(N[C@@H]3CCCNC3)nc(N3CCOCC3)[nH]c2=O)c1 [Example 222, (R)-2-(2-morpholino-6-oxo-4-(piperidin-3-ylamino)-1,6-dihydropyrimidin-5-yl)isonicotinonitrile]",
2200 nM,,"O=c1[nH]c(N2CCOCC2)nc(NCCN2CCCC2)c1-c1nc2ccccc2s1 [Example 259, 5-(1,3-benzothiazol-2-yl)-2-(morpholin-4-yl)-6-[[2-(pyrrolidin-1-yl)ethyl]amino]-3,4-dihydropyrimidin-4-one]",
,45 nM,"O=c1[nH]c(N2CCN(c3ccccc3C(F)(F)F)CC2)nc(N[C@@H]2CCCNC2)c1-c1nc2ccccc2s1 [Example 148, (R)-5-(benzo[d]thiazol-2-yl)-6-(piperidin-3-ylamino)-2-(4-(2-(trifluoromethyl)phenyl)piperazin-1-yl)pyrimidin-4(3H)-one]",
720 nM,,"CN1CCCC(Nc2nc(N3CCOCC3)[nH]c(=O)c2-c2ccc3ccccc3n2)C1 (centres unmarked) [Example 274, 6-[(1-methylpiperidin-3-yl)amino]-2-(morpholin-4-yl)-5-(quinolin-2-yl)-3,4-dihydropyrimidin-4-one]",
,138 nM,"Cc1nsc(C2CCN(c3nc(N[C@@H]4CCCNC4)c(-c4ccc5ccccc5n4)c(=O)[nH]3)CC2)n1 [Example 191, (R)-2-(4-(3-methyl-1,2,4-thiadiazol-5-yl)piperidin-1-yl)-6-(piperidin-3-ylamino)-5-(quinolin-2-yl)pyrimidin-4(3H)-one]",
,864 nM,"O=c1[nH]c(N2CCOCC2CO)nc(N[C@@H]2CCCNC2)c1-c1nc2ccccc2s1 (stereo partly drawn) [Example 125, 5-(benzo[d]thiazol-2-yl)-2-(3-(hydroxymethyl)morpholino)-6-((R)-piperidin-3-ylamino)pyrimidin-4(3H)-one]",
,27 nM,"O=c1[nH]c(N2CCN(c3ccccc3Cl)CC2)nc(N[C@@H]2CCCNC2)c1-c1nc2ccccc2s1 [Example 151, (R)-5-(benzo[d]thiazol-2-yl)-2-(4-(2-chlorophenyl)piperazin-1-yl)-6-(piperidin-3-ylamino)pyrimidin-4(3H)-one]",
1200 nM,,"CN1CCCC(Nc2nc(N3CCOCC3)[nH]c(=O)c2-c2nc3ccccc3s2)C1 (centres unmarked) [Example 252, 5-(1,3-benzothiazol-2-yl)-6-[(1-methylpiperidin-3-yl)amino]-2-(morpholin-4-yl)-3,4-dihydro-pyrimidin-4-one]",
74 nM,,"CN(C)c1nc(N[C@@H]2CCCNC2)c(-c2nc3ccccc3s2)c(=O)[nH]1 [Example 289, (R)-5-(benzo[d]thiazol-2-yl)-2-(dimethylamino)-6-(piperidin-3-ylamino)pyrimidin-4(3H)-one]",
,17 nM,"O=c1[nH]c(N2C[C@H](F)[C@@H](F)C2)nc(N[C@@H]2CCCNC2)c1-c1ccc2ccccc2n1 [Example 175, 2-((3S,4S)-3,4-difluoropyrrolidin-1-yl)-6-((R)-piperidin-3-ylamino)-5-(quinolin-2-yl)pyrimidin-4(3H)-one]",
120 nM,,"Cc1ccc2sc(-c3c(N[C@@H]4CCCNC4)nc(N4CCOCC4)[nH]c3=O)nc2c1 [Example 308, 5-(5-methyl-1,3-benzothiazol-2-yl)-2-(morpholin-4-yl)-6-[[(3R)-piperidin-3-yl]amino]-3,4-dihydropyrimidin-4-one; formic acid]",
2500 nM,,"CC(C)C[C@H](CO)Nc1nc(N2CCOCC2)[nH]c(=O)c1-c1nc2ccccc2s1 [Example 266, (R)-5-(benzo[d]thiazol-2-yl)-6-(1-hydroxy-4-methylpentan-2-ylamino)-2-morpholinopyrimidin-4(3H)-one]",

IC50 (read-out: IC50),IC50 (read-out: IRAK4 IC50),SMILES,other results
,,"O=c1[nH]c(N2CCC2)nc(N[C@@H]2C[C@H](CO)[C@@H](O)[C@H]2O)c1-c1nc2ccccc2s1 [Example 31, 2-(Azetidin-1-yl)-5-(benzo[d]thiazol-2-yl)-6-(((1R,2S,3R,4R)-2,3-dihydroxy-4-(hydroxymethyl)cyclopentyl)amino)pyrimidin-4(3H)-one.HCl]",IC50 [1]: 67 nM
,54 nM,"CC(=O)NC1CCN(c2nc(N[C@@H]3CCCNC3)c(-c3ccc4ccccc4n3)c(=O)[nH]2)C1 (stereo partly drawn) [Example 165, N-(1-(6-oxo-4-((R)-piperidin-3-ylamino)-5-(quinolin-2-yl)-1,6-dihydropyrimidin-2-yl)pyrrolidin-3-yl)acetamide]",
,45 nM,"O=c1[nH]c(N2CCC(c3cccc(F)n3)CC2)nc(N[C@@H]2CCCNC2)c1-c1ccc2ccccc2n1 [Example 193, (R)-2-(4-(6-fluoropyridin-2-yl)piperidin-1-yl)-6-(piperidin-3-ylamino)-5-(quinolin-2-yl)pyrimidin-4(3H)-one]",
81 nM,,"COCC1CN(c2nc(N[C@@H]3CCCNC3)c(-c3nc4ccccc4s3)c(=O)[nH]2)CCO1 (stereo partly drawn) [Example 286, 5-(benzo[d]thiazol-2-yl)-2-(2-(methoxymethyl)morpholino)-6-((R)-piperidin-3-ylamino)pyrimidin-4(3H)-one]",
359 nM,,"C[C@H]1C[C@@H](Nc2nc(N3CCOCC3)[nH]c(=O)c2-c2nc3ccccc3s2)CN1 [Example 209, 5-(benzo[d]thiazol-2-yl)-6-(((3R,5S)-5-methylpyrrolidin-3-yl)amino)-2-morpholinopyrimidin-4(3H)-one]",
27 nM,,"O=c1[nH]c(N2CCC3(CCN(Cc4ccccc4)C3)C2)nc(N[C@@H]2CCCNC2)c1-c1nc2ccccc2s1 (stereo partly drawn) [Example 327, 5-(1,3-benzothiazol-2-yl)-2-[7-benzyl-2,7-diazaspiro[4.4]nonan-2-yl]-6-[[(3R)-piperidin-3-yl]amino]-3,4-dihydropyrimidin-4-one; trifluoroacetic acid]",
,9 nM,"O=c1[nH]c(N2CCN(c3cc(Cl)ccn3)CC2)nc(N[C@@H]2CCCNC2)c1-c1nc2ccccc2s1 [Example 145, (R)-5-(benzo[d]thiazol-2-yl)-2-(4-(4-chloropyridin-2-yl)piperazin-1-yl)-6-(piperidin-3-ylamino)pyrimidin-4(3H)-one]",
5900 nM,,"O=C1C[C@@H](Nc2nc(N[C@@H]3CCCNC3)c(-c3nc4ccccc4s3)c(=O)[nH]2)Cc2ccccc2N1 [Example 303, (S)-4-(5-(benzo[d]thiazol-2-yl)-6-oxo-4-((R)-piperidin-3-ylamino)-1,6-dihydropyrimidin-2-ylamino)-4,5-dihydro-1H-benzo[b]azepin-2(3H)-one]",
,42 nM,"O=c1[nH]c(N2CCN(c3cccc(C(F)(F)F)c3)CC2)nc(N[C@@H]2CCCNC2)c1-c1nc2ccccc2s1 [Example 152, (R)-5-(benzo[d]thiazol-2-yl)-6-(piperidin-3-ylamino)-2-(4-(3-(trifluoromethyl)phenyl)piperazin-1-yl)pyrimidin-4(3H)-one]",
,,"CC(C)[C@H]1C[C@@H](Nc2nc[nH]c(=O)c2-c2nc3ccccc3s2)[C@H](O)[C@@H]1O [Example 43, 5-(Benzo[d]thiazol-2-yl)-6-((1R,2S,3R,4R)-2,3-dihydroxy-4-isopropylcyclopentylamino)pyrimidin-4(3H)-one.HCl]",IC50 [1]: 850 nM
,11 nM,"O=c1[nH]c(N2CCN(c3ccc4c(c3)OCO4)CC2)nc(N[C@@H]2CCCNC2)c1-c1nc2ccccc2s1 [Example 155, (R)-2-(4-(benzo[d][1,3]dioxol-5-yl)piperazin-1-yl)-5-(benzo[d]thiazol-2-yl)-6-(piperidin-3-ylamino)pyrimidin-4(3H)-one]",
,,"O=c1[nH]c(N2CCOCC2)nc(N[C@@H]2CCCNC2)c1-c1nccs1 [Example 101, (R)-2-morpholino-6-(piperidin-3-ylamino)-5-(thiazol-2-yl)pyrimidin-4(3H)-one.HCl]",IC50 [1]: 1830 nM
,57 nM,"O=c1[nH]c(N2CCOC(CCO)C2)nc(N[C@@H]2CCCNC2)c1-c1nc2ccccc2s1 (stereo partly drawn) [Example 129, 5-(benzo[d]thiazol-2-yl)-2-(2-(2-hydroxyethyl)morpholino)-6-((R)-piperidin-3-ylamino)pyrimidin-4(3H)-one]",
,,"Cc1nccc2sc(-c3c(N[C@@H]4C[C@H](CO)[C@@H](O)[C@H]4O)nc(N4CCOCC4)[nH]c3=O)nc12 [Example 56, 6-(((1R,2S,3R,4R)-2,3-Dihydroxy-4-(hydroxymethyl)cyclopentyl)amino)-5-(4-methylthiazolo[4,5-c]pyridin-2-yl)-2-morpholinopyrimidin-4(3H)-one.HCl]",IC50 [1]: 8.4 nM
3000 nM,,"O=c1[nH]c(N[C@H]2c3ccccc3C[C@@H]2O)nc(N[C@@H]2CCCNC2)c1-c1nc2ccccc2s1 [Example 291, 5-(benzo[d]thiazol-2-yl)-2-((1S,2S)-2-hydroxy-2,3-dihydro-1H-inden-1-ylamino)-6-((R)-piperidin-3-ylamino)pyrimidin-4(3H)-one]",
550 nM,,CCS(=O)(=O)N1CCC(c2nc(N[C@@H]3CCCNC3)c(-c3nc4ccccc4s3)c(=O)[nH]2)CC1 [Example 236],
